The nature of assay [1]: Negative allosteric modulation activity at human P2X4 receptor expressed in human 1321N1 cells assessed as ATP induced calcium response by measuring ATP EC50 at 40 nM.
The nature of assay [2]: Negative allosteric modulation activity at human P2X4 receptor expressed in human 1321N1 cells assessed as ATP induced calcium response by measuring ATP EC50 at 200 nM.
A short description of assay [3]: Negative allosteric modulation activity at human P2X4 receptor expressed in human 1321N1 cells assessed as ATP induced calcium response by measuring ATP EC50 at 100 nM.
Assay [4] is described as follows: Negative allosteric modulation activity at human P2X7 receptor expressed in human 1321N1 cells assessed as ATP induced calcium response by measuring ATP EC50 at 40 nM.
The nature of assay [5]: Negative allosteric modulation activity at human P2X7 receptor expressed in human 1321N1 cells assessed as ATP induced calcium response by measuring ATP EC50 at 100 nM.
Assay [6] is described as follows: Negative allosteric modulation activity at human P2X7 receptor expressed in human 1321N1 cells assessed as ATP induced calcium response by measuring ATP EC50 at 200 nM.

Broadly, the EC50 is the midpoint of the concentration-response curve. For `CC(C)c1ccc(NC(=S)NC(=O)C23CC4CC(CC(C4)C2)C3)c(Br)c1`, the EC50 is 10.1 µM in assay [1], 12.2 µM in assay [2] and 8.96 µM in assay [3].

`O=C(NC(=S)Nc1cccc2cccnc12)C12CC3CC(CC(C3)C1)C2`: the EC50 in assay [4] turned out to be 6.62 µM; in assay [5], 6.08 µM; in assay [6] it was 2.19 µM.

(Values after BindingDB's records for PubMed 35123298 (Comsats University Islamabad, 2022).)
